The NIST ThermoML archive (doi:10.1016/j.jct.2005.10.004)
Values joined by “and” are separate entries in the source; they are usually repeats but may differ in a detail not shown here. Equal values may be shown once.

Assay: xn = mol fraction of the nth substance listed
Conditions: Gas, Buoyancy - hydrostatic balance with magnetic suspension - one sinker

N#N [nitrogen] + C
Conditions | mass density
299.91 K, 7416.3 kPa, x2 = 0.8 | 59.8697 kg/m3
299.91 K, 7417.6 kPa, x2 = 0.8 | 59.8813 kg/m3
299.91 K, 9999.1 kPa, x2 = 0.8 | 82.4744 kg/m3
299.91 K, 10000 kPa, x2 = 0.8 | 82.4859 kg/m3
299.91 K, 10001 kPa, x2 = 0.8 | 82.4925 kg/m3
299.91 K, 12313 kPa, x2 = 0.8 | 102.883 kg/m3
299.91 K, 12314 kPa, x2 = 0.8 | 102.89 kg/m3
299.91 K, 14412 kPa, x2 = 0.8 | 121.138 kg/m3 and 121.127 kg/m3
299.91 K, 16342 kPa, x2 = 0.8 | 137.386 kg/m3
299.91 K, 16343 kPa, x2 = 0.8 | 137.395 kg/m3
299.92 K, 2421.7 kPa, x2 = 0.8 | 18.4741 kg/m3
299.92 K, 4995 kPa, x2 = 0.8 | 39.3048 kg/m3
299.92 K, 9109.5 kPa, x2 = 0.8 | 74.6412 kg/m3
299.99 K, 13043 kPa, x2 = 0.8998 | 105.072 kg/m3
299.99 K, 15058 kPa, x2 = 0.8998 | 122.114 kg/m3 and 122.112 kg/m3
299.99 K, 17101 kPa, x2 = 0.8998 | 138.717 kg/m3 and 138.72 kg/m3
299.99 K, 19357 kPa, x2 = 0.8998 | 155.97 kg/m3
299.99 K, 19358 kPa, x2 = 0.8998 | 155.975 kg/m3
300 K, 899.61 kPa, x2 = 0.8998 | 6.30257 kg/m3
300 K, 2023 kPa, x2 = 0.8998 | 14.4126 kg/m3
300 K, 2023.1 kPa, x2 = 0.8998 | 14.4136 kg/m3
300 K, 2766.3 kPa, x2 = 0.8998 | 19.9248 kg/m3
300 K, 4003.3 kPa, x2 = 0.8998 | 29.3523 kg/m3
300 K, 4948.9 kPa, x2 = 0.8998 | 36.7656 kg/m3
300 K, 5998.7 kPa, x2 = 0.8998 | 45.1981 kg/m3
300 K, 5998.9 kPa, x2 = 0.8998 | 45.2004 kg/m3
300 K, 6904.7 kPa, x2 = 0.8 | 55.4385 kg/m3
300 K, 6954.3 kPa, x2 = 0.8998 | 53.0353 kg/m3
300 K, 8009.1 kPa, x2 = 0.8998 | 61.855 kg/m3
300 K, 8009.7 kPa, x2 = 0.8998 | 61.8592 kg/m3
300 K, 9029.6 kPa, x2 = 0.8998 | 70.5133 kg/m3 and 70.5136 kg/m3
300 K, 9030 kPa, x2 = 0.8998 | 70.5158 kg/m3
300 K, 10050 kPa, x2 = 0.8998 | 79.2704 kg/m3
300 K, 11034 kPa, x2 = 0.8998 | 87.7596 kg/m3
300 K, 12063 kPa, x2 = 0.8998 | 96.6441 kg/m3
300 K, 12064 kPa, x2 = 0.8998 | 96.6562 kg/m3
300 K, 12996 kPa, x2 = 0.8998 | 104.673 kg/m3
300 K, 14010 kPa, x2 = 0.8998 | 113.319 kg/m3
300 K, 14012 kPa, x2 = 0.8998 | 113.335 kg/m3
300 K, 16021 kPa, x2 = 0.8998 | 130.057 kg/m3
300 K, 16023 kPa, x2 = 0.8998 | 130.071 kg/m3
300 K, 17936 kPa, x2 = 0.8998 | 145.268 kg/m3
300 K, 17939 kPa, x2 = 0.8998 | 145.292 kg/m3
300 K, 20071 kPa, x2 = 0.8998 | 161.173 kg/m3
300 K, 20074 kPa, x2 = 0.8998 | 161.19 kg/m3
300.01 K, 19196 kPa, x2 = 0.8 | 160.005 kg/m3
349.98 K, 2438.8 kPa, x2 = 0.8 | 15.6874 kg/m3
349.98 K, 4939.5 kPa, x2 = 0.8 | 32.1898 kg/m3
349.98 K, 17023 kPa, x2 = 0.8 | 112.695 kg/m3
349.99 K, 2438.9 kPa, x2 = 0.8 | 15.6871 kg/m3
349.99 K, 4939.9 kPa, x2 = 0.8 | 32.193 kg/m3
349.99 K, 7493.5 kPa, x2 = 0.8 | 49.3399 kg/m3
349.99 K, 7494.4 kPa, x2 = 0.8 | 49.3451 kg/m3
349.99 K, 8821.7 kPa, x2 = 0.8 | 58.3187 kg/m3
349.99 K, 8822.8 kPa, x2 = 0.8 | 58.3243 kg/m3
349.99 K, 12241 kPa, x2 = 0.8 | 81.3717 kg/m3
349.99 K, 12243 kPa, x2 = 0.8 | 81.3884 kg/m3
349.99 K, 14938 kPa, x2 = 0.8 | 99.2371 kg/m3
349.99 K, 14942 kPa, x2 = 0.8 | 99.2671 kg/m3
349.99 K, 17029 kPa, x2 = 0.8 | 112.731 kg/m3
350 K, 1986.4 kPa, x2 = 0.8998 | 11.9478 kg/m3
350 K, 1986.5 kPa, x2 = 0.8998 | 11.9485 kg/m3
350 K, 3975.2 kPa, x2 = 0.8998 | 24.2393 kg/m3
350 K, 5966.2 kPa, x2 = 0.8998 | 36.8151 kg/m3
350 K, 8018.7 kPa, x2 = 0.8998 | 49.9871 kg/m3
350 K, 10026 kPa, x2 = 0.8998 | 62.975 kg/m3
350 K, 12032 kPa, x2 = 0.8998 | 75.9524 kg/m3
350 K, 12033 kPa, x2 = 0.8998 | 75.9539 kg/m3
350 K, 13967 kPa, x2 = 0.8998 | 88.3679 kg/m3
350 K, 13968 kPa, x2 = 0.8998 | 88.373 kg/m3
350 K, 16066 kPa, x2 = 0.8998 | 101.591 kg/m3
350 K, 16068 kPa, x2 = 0.8998 | 101.601 kg/m3
350 K, 16070 kPa, x2 = 0.8998 | 101.613 kg/m3
350 K, 16189 kPa, x2 = 0.8998 | 102.36 kg/m3
350 K, 18024 kPa, x2 = 0.8998 | 113.606 kg/m3
350 K, 19983 kPa, x2 = 0.8998 | 125.244 kg/m3
350 K, 19984 kPa, x2 = 0.8998 | 125.244 kg/m3
350.01 K, 8197.7 kPa, x2 = 0.8 | 54.0918 kg/m3
350.01 K, 8197.9 kPa, x2 = 0.8 | 54.0933 kg/m3
350.01 K, 10149 kPa, x2 = 0.8 | 67.2887 kg/m3
350.01 K, 11859 kPa, x2 = 0.8 | 78.8049 kg/m3
350.01 K, 11862 kPa, x2 = 0.8 | 78.8216 kg/m3
400 K, 4571.9 kPa, x2 = 0.8 | 25.5965 kg/m3
400 K, 5986.1 kPa, x2 = 0.8998 | 31.5654 kg/m3
400 K, 8029.2 kPa, x2 = 0.8998 | 42.4672 kg/m3
400 K, 9750.2 kPa, x2 = 0.8 | 54.7419 kg/m3
400 K, 12023 kPa, x2 = 0.8998 | 63.6651 kg/m3
400 K, 13644 kPa, x2 = 0.8 | 76.2876 kg/m3
400 K, 14030 kPa, x2 = 0.8998 | 74.1643 kg/m3
400 K, 18095 kPa, x2 = 0.8998 | 94.8699 kg/m3
400 K, 18098 kPa, x2 = 0.8998 | 94.8835 kg/m3
400 K, 19369 kPa, x2 = 0.8998 | 101.162 kg/m3
400.01 K, 2027.7 kPa, x2 = 0.8998 | 10.5861 kg/m3
400.01 K, 4038.9 kPa, x2 = 0.8998 | 21.2078 kg/m3
400.01 K, 4040.2 kPa, x2 = 0.8998 | 21.2133 kg/m3
400.01 K, 8029.4 kPa, x2 = 0.8998 | 42.4641 kg/m3
400.01 K, 10035 kPa, x2 = 0.8998 | 53.1468 kg/m3 and 53.1474 kg/m3
400.01 K, 14024 kPa, x2 = 0.8998 | 74.1363 kg/m3
400.01 K, 15973 kPa, x2 = 0.8998 | 84.171 kg/m3
400.01 K, 15985 kPa, x2 = 0.8998 | 84.2306 kg/m3
400.01 K, 19362 kPa, x2 = 0.8998 | 101.12 kg/m3
400.07 K, 1968.6 kPa, x2 = 0.8 | 10.9663 kg/m3
400.07 K, 5054.8 kPa, x2 = 0.8 | 28.3114 kg/m3
400.07 K, 7579.8 kPa, x2 = 0.8 | 42.5457 kg/m3
400.07 K, 7586.8 kPa, x2 = 0.8 | 42.5825 kg/m3
400.07 K, 10122 kPa, x2 = 0.8 | 56.8069 kg/m3
400.07 K, 10130 kPa, x2 = 0.8 | 56.8516 kg/m3
400.07 K, 13112 kPa, x2 = 0.8 | 73.3611 kg/m3
400.07 K, 13116 kPa, x2 = 0.8 | 73.3802 kg/m3
400.07 K, 13262 kPa, x2 = 0.8 | 74.1822 kg/m3
400.07 K, 15317 kPa, x2 = 0.8 | 85.3273 kg/m3
400.07 K, 15324 kPa, x2 = 0.8 | 85.3629 kg/m3
400.07 K, 17285 kPa, x2 = 0.8 | 95.7881 kg/m3
400.07 K, 17324 kPa, x2 = 0.8 | 95.9938 kg/m3
